The test system of series [1] is pyocyanin in P. aeruginosa PA14. Briefly: Pyocyanin assay in P. aeruginosa PA14 cultures. The series is classed as cell-based, Pseudomonas aeruginosa PA14. Particulars: mean of at least two independent experiments, SD<25 %. How it is done: (§1) 6. Effects in P. aeruginosa
(§2) Pyocyanin Assay. The inhibition of virulence factor pyocyanin was measured as described previously[26] following a procedure established by Essar et al.[28] Briefly, Pseudomonas aeruginosa PA14 cultures were grown in the presence of inhibitors or DMSO as control for 16 h. Pyocyanin was determined photometrically after extraction of the cultures with chloroform and re-extraction with 0.2 M HCl. Protonated red colored pyocyanin was determined by measuring OD520 and normalizing to OD600. None of the compound impaired bacterial viability as observed by the OD600 parameter. Inhibition values were expressed in relation to the DMSO control. Each value is the mean of at least two independent experiments with n=3.
(§3) The given IC50 values represent the mean of at least two experiments using at least five different concentrations. Curve fitting was performed using the log (inhibitor) vs response model with constrained bottom = 0 and top =100 (GraphPad Prism 5.0).
(§4) Figure S4: Inhibition of virulence factor pyocyanin was evaluated in the clinical isolate PA14.
(§5) Representative dose-response curves a) compound 11 b) compound 20. Black dotes (•) represent the reduction of pyocyanin in presents of a given compound concentration relative to DMSO control (= 0 %). The continuous black line is the none -linear regression analysis to […]
(1 picture or pasted object on this page, not shown here)

For series [2], the system named is HHQ levels in PA14pqsH strain. Briefly: HHQ quantification in PA14pqsH cultures (UHPLC-MS/MS). The conditions noted are these: Pseudomonas aeruginosa, read-out: HHQ inhibition. The series is classed as cell-based. Here is the method: (§6) determine IC50 values using a log (inhibitor) vs. response model with constrains (bottom = 0; top =100) (Graph Pad Prism 5.04).
(§7) HHQ and HQNO Quantification. Extracellular HHQ and HQNO were measured as previously reported[29] following a modified procedure of Lépine et al.:[30] Briefly, P. aeruginosa PA14pqsH cultures were grown in the presence of DMSO as a control or DMSO solutions of inhibitors for 17 h. HHQ and HQNO were quantified from ethyl acetate extracts using 5,6,7,8-tetradeutero-2-heptyl-4(1H)-quinolone (HHQ-d4) as internal standard (IS).
(§8) UHPLC-MS/MS analysis was performed as described in detail by Storz et al.[31] The following ions were monitored (mother ion [m/z], product ion [m/z], scan time [s], scan width [m/z], […]
(§9) quantification was performed using Xcalibur software with the use of a calibration curve relative to the area of the IS. Given data represent the mean of at least two independent experiments with n=3 and were expressed as percentage inhibition relative to DMSO control.

Series [3] has as its system HQNO levels in PA14pqsH strain. Briefly: HQNO quantification in PA14pqsH cultures (UHPLC-MS/MS). The class given is cell-based. The conditions noted are these: Pseudomonas aeruginosa, read-out: HQNO inhibition. How it is done:
as §6, §7, §8, §9

The target of the next series is T1, PqsRT265A (Pseudomonas aeruginosa, UniProt Q9I4X0, T265A).
T1 construct: H6SUMOPqsRc87 and T265A mutant H6SUMOPqsRc87 for ITC studies was expressed; made in house; host or cells: E. coli BL21 (λDE3)
Briefly: ITC thermodynamic signature, PqsRwt versus PqsRT265A mutant. The series is classed as binding. The conditions noted are these: comparison of thermodynamic signatures (SI, Figure S3). How it is done: 3. Isothermal Titration Calorimetry
3.1 Site-directed Mutagenesis: PqsRT265A mutant
The plasmid pSUMO3_ck4_T265ApqsRC87 was generated as previously described[8] using QuikChange Site-Directed Mutagenesis Kit (Stratagene) following the manufacturer’s instructions. The following primer were used: forward 5'
3. PCR condition to amplify the T265A gene: 16 cycles with 35s denaturation at 95 °C, 60 s annealing at 55 ° C, and 13 min extension. The generated plasmid was transformed via electroporation into E. coli BL21 3.2 Expression and Purification of H6SUMOPqsRc87
(§10) H6SUMOPqsRc87 and T265A mutant H6SUMOPqsRc87 for ITC studies was expressed and purified as previously reported.[8,9] Briefly, E. coli BL21 (λDE3) transfected with the pSUMO3_ck4_pqsRC87 or pSUMO3_ck4_T265ApqsRC87 plasmid[8] were grown in LB medium containing 50 µg mL-1 kanamycin at 37 °C to an OD600 of approximately 0.8 and expression was induced with 0.2 mM IPTG for 16 h at 16 °C. The protein was purified using nickel affinity chromatography in a one step gradient.
ITC titrations were performed as described before.[8,9] Briefly, ITC experiments were carried out using an ITC200 instrument (Microcal Inc., GE Healthcare). The titrations were performed on 50-150 µM H6SUMO-PqsRC87 in the 200 µL sample cell using 19 injections of 2 µL ligand solution (0.5-1.5 mM) every 180 s. […]

The target of series [4] is T2, PqsR (Pseudomonas aeruginosa, UniProt Q9I4X0). The series is described as follows: biochemical. The series is classed as binding. Particulars: for EE: enthalpic efficiency. Further details: H6SUMOPqsRc87 and T265A mutant H6SUMOPqsRc87 for ITC studies was expressed; made in house; host or cells: E. coli BL21 (λDE3). How it is done:
3.2 Expression and Purification of H6SUMOPqsRc87
as §10
Target sequence in this assay (Q9I4X0 87-332): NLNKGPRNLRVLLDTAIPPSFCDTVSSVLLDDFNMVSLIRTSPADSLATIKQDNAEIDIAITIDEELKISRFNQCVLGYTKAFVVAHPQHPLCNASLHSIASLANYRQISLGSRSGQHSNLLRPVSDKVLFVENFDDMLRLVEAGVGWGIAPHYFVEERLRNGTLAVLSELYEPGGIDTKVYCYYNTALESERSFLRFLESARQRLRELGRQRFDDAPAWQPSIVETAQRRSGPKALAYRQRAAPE
ITC titrations were performed as described before.[8,9] Briefly, ITC experiments were carried out using an ITC200 instrument (Microcal Inc., GE Healthcare). The titrations were performed on 50-150 µM H6SUMO-PqsRC87 in the 200 µL sample cell using 19 injections of 2 µL ligand solution (0.5-1.5 mM) every 180 s. The data were collected and the area under each peak was integrated. To correct for heats of dilution and mixing the final base line consisting of small peaks of the same size at the end of the titration were substracted.

In series [5] the test system is Pseudomonas aeruginosa PA14. The class given is cell-based. Particulars: PA14 cultures grown 16 h in the presence of inhibitors. Here is the method:
as §1, §2, §3, §4, §5

Series [6] addresses T2, PqsR. The series is described as follows: PqsR β-galactosidase reporter gene assay in E. coli. Further details: expressed in transfected cells; host or cells: E. coli DH5α carrying plasmid pEAL08-2. The class given is cell-based. The conditions noted are these: E. coli reporter gene assay; 20 compared with 11. How it is done: 5. E. coli reporter-gene assay & dose-response curves
PqsR Reporter gene assay in E. coli. The inverse agonistic/antagonistic activity of potential PqsR ligands was evaluated in a β-galactosidase reporter gene assay in E. coli as previously described.[26] In short, test compounds were co-incubated with E. coli DH5α cells containing the plasmid pEAL08-2,[27] which expresses PqsR and the β-galactosidase LacZ under the control of the pqsA promoter. The inverse agonistic/antagonistic activity of compounds was measured in the presence of 50 nM PQS. After incubation, galactosidase activity was quantified photometrically and expressed as ratio of controls. The given IC50 values represent the mean of at least two independent experiments using at least eight different concentrations of test compound with n = 4. Non-linear regression analysis was done using the log (inhibitor) vs response model included in the GrapPad Prism 5.0 software package.
Target sequence in this assay (Q9I4X0 whole entry): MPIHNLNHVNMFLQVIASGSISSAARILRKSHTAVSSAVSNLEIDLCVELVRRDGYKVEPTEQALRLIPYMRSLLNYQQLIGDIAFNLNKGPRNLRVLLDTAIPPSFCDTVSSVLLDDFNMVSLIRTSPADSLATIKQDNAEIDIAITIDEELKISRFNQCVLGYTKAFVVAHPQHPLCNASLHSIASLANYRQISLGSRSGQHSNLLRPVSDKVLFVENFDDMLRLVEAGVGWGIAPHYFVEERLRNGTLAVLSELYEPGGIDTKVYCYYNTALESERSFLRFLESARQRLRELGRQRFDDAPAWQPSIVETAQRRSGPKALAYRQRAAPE

[7] abbreviates: Pseudomonas aeruginosa, PA14, read-out: Pyocyanin IC50, PA14 cultures, photometric quantification.

Here are results for 2 compounds from paper PMC7004148, “Flexible Fragment Growing Boosts Potency of Quorum‐Sensing Inhibitors against Pseudomonas aeruginosa Virulence” (Chemmedchem, 2019).

As usually defined, the IC50 is the concentration needed to halve the response being measured. For orientation: inhibition means the share of the control response that was lost under treatment. For orientation: Kd means a measure of binding affinity in units of concentration.

Where two headings read alike, the source gives them in different places.

T1 sequence (Q9I4X0 87-332 T265A): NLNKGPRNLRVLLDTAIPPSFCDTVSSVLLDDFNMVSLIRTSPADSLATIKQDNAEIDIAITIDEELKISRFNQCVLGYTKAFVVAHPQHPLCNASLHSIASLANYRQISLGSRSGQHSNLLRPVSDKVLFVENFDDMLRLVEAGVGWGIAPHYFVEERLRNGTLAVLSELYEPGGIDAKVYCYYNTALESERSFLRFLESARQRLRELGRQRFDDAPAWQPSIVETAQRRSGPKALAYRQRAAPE

`Nc1cc(NCc2ccc(F)cc2)cc(C(F)(F)F)n1` [Compound 11]: the IC50 in series [1] (setting [7]) amounted to 105 ± 13 µM. For the same compound, the IC50 in series [1] (read-out: Pyocyanin IC50, PA14 cultures, photometric quantification) stood at 102 µM. The inhibition at 200 µM in series [2] was determined as 48 ± 4%. Also, the inhibition at 200 µM in series [3] is 36 ± 3%. For the same compound, the “Enthalpic contribution, PqsRwt versus PqsRT265A” value at PqsRT265A was “no significant difference in the enthalpic contribution”. On PqsR [4], this compound gave a Kd of 0.6 ± 0.2 µM. Further, at PqsR [4] (Table S1), the “-TΔS” value is 1.0 ± 0.8 kcal/mol, the ΔG is -8.4 ± 0.2 kcal/mol, the ΔH is -9.8 ± 0.8 kcal/mol and the EE is 0.49 kcal/mol. This compound had an LE on PqsR [4] (Table S1, ligand efficiency) of 0.42 kcal/mol.
As to `Nc1cc(NCCCc2ccc(F)cc2)cc(C(F)(F)F)n1` [Compound 20], in series [1] (setting [7]), the IC50 worked out at 5.9 µM. Also, the inhibition at 100 µM in series [2] turned out to be 56 ± 4%; in series [3], 48 ± 1%. Besides, in series [5], the “Bacterial viability (OD600)” value was “without affecting bacterial viability”. Besides, the “boost in potency (IC50) versus 11” value on PqsR [6] was determined as 20 fold. Further, at PqsR [4] (Table S1), the EE stood at 0.50 kcal/mol.
